# Assay results published in patent US11370774B2, “Substituted benzofuran, benzopyrrole, benzothiophene, and structurally related complement inhibitors” (BioCryst Pharmaceuticals, Inc., priority 2018, dated 2022).
# Molecular target: Factor D (Homo sapiens (Human), UniProt P00746)
# Test: Factor D esterolytic assay (Z-Lys-SBzl substrate, DTNB, 405 nm)
# Assay type: biochemical
# Settings: Z-Lys-SBzl 1.29 mM, pH 7.5, 10% DMSO, tested a minimum of three times, read-out: Measured Ki (IC50) Value for Compounds: IC50
# How it was run: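 Thioester hydrolysis (Z-Lys-SBzl, 1.29 mM) by human Factor D ([…]) detected through DTNB color at 405 nm over 600 sec, minus 690 nm background. Buffer: 100 mM HEPES pH 7.5, 500 mM NaCl, 10% DMSO; optional room-temperature preincubation before substrate. IC50 derived from percent rate inhibition; at least three runs.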
# Chain of Factor D (P00746 26-253): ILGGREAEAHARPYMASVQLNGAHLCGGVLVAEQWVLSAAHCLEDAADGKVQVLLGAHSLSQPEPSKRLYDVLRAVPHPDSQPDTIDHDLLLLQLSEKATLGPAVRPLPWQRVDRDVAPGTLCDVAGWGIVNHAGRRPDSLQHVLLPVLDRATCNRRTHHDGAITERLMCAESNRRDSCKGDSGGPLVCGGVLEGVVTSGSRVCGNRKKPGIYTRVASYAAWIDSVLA
row,SMILES,IC50 [µM]
1,"NCc1cccc(-c2cc(COc3cc(-c4cccnc4)ccc3CC(=O)O)cc3ccoc23)c1 [Compound 319c, 2-(2-((7-(3-(aminomethyl)phenyl)benzofuran-5-yl)methoxy)-4-(pyridin-3-yl)phenyl)acetic acid]",< 1
2,"CC(C)n1ccc2c(-c3cccc(CN)c3)cc(COc3ccccc3CC(=O)O)cc21 [Compound 109g, 2-(2-((4-(3-(aminomethyl)phenyl)-1-isopropyl-1H-indol-6-yl)methoxy)phenyl)acetic acid]",< 1
3,"CC(C)S(=O)(=O)n1ccc2c(-c3cccc(CN)c3F)cc(COc3ccccc3CC(=O)O)cc21 [Compound 229b, 2-(2-((4-(3-(aminomethyl)-2-fluorophenyl)-1-(isopropylsulfonyl)-1H-indol-6-yl)methoxy)phenyl)acetic acid]",< 1
4,"NCc1cc(-c2cc(COc3ccccc3CC(=O)O)c(F)c3ccoc23)ccn1 [Compound 172b, 2-(2-((7-(2-(aminomethyl)pyridin-4-yl)-4-fluorobenzofuran-5-yl)methoxy)phenyl)acetic acid]",< 1
5,"NCc1nccc(-c2cc(COc3cc(F)ccc3CC(=O)O)cc3c(C(F)(F)F)coc23)c1F [Compound 490c, 2-(2-((7-(2-(aminomethyl)-3-fluoropyridin-4-yl)-3-(trifluoromethyl)benzofuran-5-yl)methoxy)-4-fluorophenyl)acetic acid]",< 1
6,"NCc1cccc(-c2cc(C(=O)Nc3ccccc3CC(=O)O)cc3c2CCC3)c1 [Compound 160e, 2-(2-(7-(3-(aminomethyl)phenyl)-2,3-dihydro-1H-indene-5-carboxamido)phenyl)acetic acid]",< 1
7,"Cc1noc2c(-c3cccc(CN)c3)cc(COc3ccccc3CC(=O)O)cc12 [Compound 191h, 2-(2-((7-(3-(aminomethyl)phenyl)-3-methylbenzo[d]isoxazol-5-yl)methoxy)phenyl)acetic acid]",< 1
8,"CNCc1cc2cc(COc3ccccc3CC(=O)O)cc(-c3cccc(CN)c3)c2o1 [Compound 138f, 2-(2-((7-(3-(aminomethyl)phenyl)-2-((methylamino)methyl)benzofuran-5-yl)methoxy)phenyl)acetic acid]",< 1
9,"COCc1cc2cc(COc3cc(C)ccc3CC(=O)O)cc(-c3cccc(C(N)CF)c3)c2o1 (single isomer, unassigned; (+)) [Compound 455c, (+)-2-(2-((7-(3-(1-amino-2-fluoroethyl)phenyl)-2-(methoxymethyl)benzofuran-5-yl)methoxy)-4-methylphenyl)acetic acid]",< 1
10,"Cc1ccc(S(=O)(=O)n2ccc3c(-c4cccc(CN)c4)cc(COc4ccccc4CC(=O)O)nc32)cc1 [Compound 49f, 2-(2-((4-(3-(aminomethyl)phenyl)-1-tosyl-1H-pyrrolo[2,3-b]pyridin-6-yl)methoxy)phenyl)acetic acid]",< 1
11,"Cc1oc2c(-c3cccc(CN)c3)cc(COc3ccccc3CC(=O)O)cc2c1C [Compound 333g, 2-(2-((7-(3-(aminomethyl)phenyl)-2,3-dimethylbenzofuran-5-yl)methoxy)phenyl)acetic acid]",< 1
12,"Cc1ccc(CC(=O)O)c(OCc2cc(-c3cccc(CN)c3)c3occ(C(F)(F)F)c3c2)c1 [Compound 345b, 2-(2-((7-(3-(aminomethyl)phenyl)-3-(trifluoromethyl)benzofuran-5-yl)methoxy)-4-methylphenyl)acetic acid]",< 1
13,"COc1ccc(OCc2cc(-c3cccc(CN)c3)c3ccn(C(C)C)c3c2)c(CC(=O)O)c1 [Compound 493b, 2-(2-((4-(3-(aminomethyl)phenyl)-1-isopropyl-1H-indol-6-yl)methoxy)-5-methoxyphenyl)acetic acid]",< 1
14,"COc1ccc(CC(=O)O)c(OCc2cc(-c3ccnc(CN)c3F)c3oc(F)cc3c2)c1 [Compound 483c, 2-(2-((7-(2-(aminomethyl)-3-fluoropyridin-4-yl)-2-fluorobenzofuran-5-yl)methoxy)-4-methoxyphenyl)acetic acid]",< 1
15,"COc1ccc(CC(=O)O)c(OCc2cc(-c3ccnc(CN)c3F)c3occ(C(F)(F)F)c3c2)c1 [Compound 498c, 2-(2-((7-(2-(aminomethyl)-3-fluoropyridin-4-yl)-3-(trifluoromethyl)benzofuran-5-yl)methoxy)-4-methoxyphenyl)acetic acid]",< 1
